{
  "source": "patent US20090123419A1",
  "about": "“TREATMENT OF UTERINE CANCER AND OVARIAN CANCER WITH A PARP INHIBITOR ALONE OR IN COMBINATION WITH ANTI-TUMOR AGENTS” (BiPar Sciences, priority 2007, published 2009)",
  "key": {"[1]": {"settings": "in vivo", "description": "(§1) The protocol has been amended to evaluate BA in combination with chemotherapy in specific tumor types.\n(§2) BA Dosing: • Twice weekly; i.v. infusion • Standard 3+3 design for BA dose escalation • Dose levels studied: 2.0, 2.8, 4.0, 5.6, 8.0, and up to 11.2 mg/kg\nSafety, tolerability and MTD of each combination"}, "[2]": {"assay": "Clinical safety experience with BA to date", "type": "in vivo, human"}, "[3]": {"tested_on": "advanced solid tumors", "assay": "Phase 1b study of BA in combination with chemotherapy, clinical response via RECIST", "type": "in vivo, human", "description": "as §1\nBA plus cytotoxic chemotherapy (CTX)\nas §2\nClinical response via RECIST every 2 cycles\nSubjects— 18 years old with a refractory, advanced solid tumor, ECOG PS of <=2, and adequate hematological, renal, and hepatic function\nNo restriction on number of prior chemotherapeutic regimens"}, "[4]": {"tested_on": "human tumor cells including breast, colon, prostate, cervix, lung, and ovarian cancers", "assay": "In vitro activity of BA against cancer cells", "type": "cell-based"}, "[5]": {"assay": "Preclinical studies of BA with topotecan"}, "[6]": {"tested_on": "normal cells", "assay": "Toxic effects of BA in normal cells", "type": "cell-based"}, "[7]": {"assay": "Tissue distribution of BA", "type": "in vivo"}, "[8]": {"assay": "Stability of solutions and drug product", "type": "physicochemical"}, "[9]": {"tested_on": "human OVCAR-3 (NIH-OVCAR-3) ovarian adenocarcinoma", "assay": "OVCAR-3 ovarian carcinoma xenograft efficacy study", "type": "in vivo, SCID mice", "description": "(§3) The human OVCAR-3 (NIH-OVCAR-3) ovarian adenocarcinoma utilized in the study is maintained in athymic nude mice by serial engraftment. The human SW620 colon adenocarcinoma utilized in the study is maintained in nude mice by serial engraftment.\nTumor weight may be estimated with the assumption that 1 mg is equivalent to 1 mm^3 of tumor volume. Tumor size, in mm^3, was calculated from: […]\nOral group receives BA p.o. (orally) twice daily from D1 p.m. until D68 a.m. (b.i.d. to end, i.e. twice daily dosing for the duration of the study). Alzet model osmotic pumps are implanted on Days 1, 15, and 29. The pumps are pre-warmed for 1 hour at 37° C., and then implanted subcutaneously (s.c.) in the left flanks of isofluoraneanesthetized mice. Each pump delivers a total dose of 25 mg/kg/week of BA over 14 days. BA is administrated intraperitoneally (i.p.) 15 mg/kg respectively twice weekly.\nEach animal is euthanized when its neoplasm reached the predetermined endpoint size (1,000 mm^3).\nwhere: T=median TTE for a treatment group, C=median TTE for control Group 1."}, "[10]": {"tested_on": "PARP", "assay": "PARP activity in tissue samples from OVCAR-3 xenograft model", "type": "in vivo, SCID mice", "settings": "after a single dose of BA; for effect on PARP activity in xenograft tissue samples: FIG. 2", "description": "as §3\nWhole blood is collected into EDTA vacutainers and human PBMCs are obtained by BD Vacutainer™ CPT™ Cell Preparation kit according to the manufacturer's instructions (BD Vacutainer™, REF 362760). Tumor samples are collected in a sterile container and placed immediately on ice. Within 30 minutes, tumor samples are snap-frozen in liquid nitrogen and stored at −80° C. until homogenized for analysis. The specimen is defrosted on ice and the wet weight is documented. The tissue is homogenized using isotonic buffer [7 mmol/L HEPES, 26 mmol/L KCl, 0.1 mmol/L dextran, 0.4 mmol/L EGTA, 0.5 mmol/L MgCl2, 45 mmol/L sucrose (pH 7.8)]. The homogenate is kept on ice throughout the process, and homogenization is done in 10-second bursts to prevent undue warming of the sample. Unless assayed on the day of homogenization, samples are refrozen to −80° C. and stored at this temperature until analyzed.\nCell preparations are defrosted rapidly at room temperature and washed twice in ice-cold PBS. […] Maximally stimulated PARP activity is measured in replicate samples of 20,000 cells in a reaction mixture containing […] NAD+ and 10 mg/mL oligonucleotide in a reaction buffer of 100 mmol/L Tris-HCl, 120 mmol/L MgCl2 (pH 7.8) in a final volume of […] as described previously (24) at 26° C. in an oscillating water bath. […] Purified PAR standards are loaded onto each membrane ([…] monomer equivalent) to generate a standard curve and allow quantification. […] Chemiluminesence detected during a 5-minute exposure is measured using a Fuji LAS3000 UV Illuminator (Raytek, Sheffield, United Kingdom) and digitized using the imaging software (Fuji LAS Image version 1.1, Raytek). The acquired image is analyzed using Aida Image Analyzer (version 3.28.001), and results are expressed in LAU/mm^2. […]"}},
  "data": [
    {"smiles": "NC(=O)c1ccc(I)c([N+](=O)[O-])c1", "note": "[BA, 4-iodo-3-nitrobenzamide]", "values": [
      {"measurement": "potentiation of known toxicities or increased frequency of expected toxicities of cytotoxic regimens", "setting": "[1]", "value": "no evidence"},
      {"measurement": "safety and tolerability", "setting": "[2]", "value": "safe and well-tolerated"},
      {"measurement": "serious adverse events or grade 3 or 4 toxicities associated with BA", "setting": "[2]", "value": "no serious adverse events or grade 3 or 4 toxicities"},
      {"measurement": "subjects with stable disease for 2 cycles of treatment or more", "setting": "[3]; BA plus cytotoxic chemotherapy", "value": "Approximately 80%"},
      {"measurement": "tumor response of a patient with advanced ovarian cancer", "setting": "[3]; after 4 cycles of BA in combination with topotecan, FIG. 4", "value": "partial response"},
      {"measurement": "subjects demonstrating some clinical benefit", "setting": "[3]; of 66 subjects, BA plus cytotoxic chemotherapy", "value": 53, "unit": "subjects"},
      {"measurement": "liver lesion (target lesion) size after treatment", "setting": "[3]; one ovarian cancer patient, 4 cycles BA with topotecan, from 4.6 cm", "value": 1.5, "unit": "cm"},
      {"measurement": "CA 27-29 biomarker after treatment", "setting": "[3]; one ovarian cancer patient, 4 cycles BA with topotecan, from >300", "value": "< 200"},
      {"measurement": "proliferation of human tumor cells", "setting": "[4]; in vitro, breast, colon, prostate, cervix, lung, and ovarian cancers", "value": "inhibits the proliferation"},
      {"measurement": "activity against cancer cells in vitro", "setting": "[4]; including drug resistant cell lines", "value": "active against a broad range of cancer cells"},
      {"measurement": "effect on antitumor activity of topotecan", "setting": "[5]", "value": "potentiates the antitumor activity of topotecan"},
      {"measurement": "toxic effects in normal cells", "setting": "[6]", "value": "without exerting toxic effects in normal cells"},
      {"measurement": "blood-brain barrier crossing", "setting": "[7]; in vivo", "value": "known to cross the blood-brain barrier"},
      {"measurement": "tissue distribution", "setting": "[7]; including the brain and cerebrospinal fluid (CSF)", "value": "distributes rapidly and widely into tissues"},
      {"measurement": "stability of BA dosing solution, time to administration after preparation", "setting": "[8]; ambient (room) temperature, diluted in 0.9% NS or D5W", "value": "≤ 8", "unit": "h"},
      {"measurement": "permitted storage of BA drug product", "setting": "[8]; at 25° C., 10 mg/mL in 25% hydroxypropylbetacyclodextrin/10 mM phosphate buffer, pH 7.4", "value": "≤ 24", "unit": "h"},
      {"measurement": "tumor growth", "setting": "[9]; OVCAR-3 xenograft in SCID mice", "value": "significantly inhibits tumor growth"},
      {"measurement": "survival compared with the untreated control", "setting": "[9]; different routes of administration, FIG. 3", "value": "improves survival"},
      {"measurement": "effect on PARP activity in xenograft tissue samples", "setting": "[10]", "value": "inhibitory effect"},
      {"measurement": "effect on PARP activity in xenograft tissue samples", "setting": "[10]; listed as 4-iodo-3-nitrobenzamide", "value": "inhibition of PARP"},
      {"measurement": "duration of inhibitory effect on PARP activity", "setting": "[10]; hours of observation", "value": "at least 8 hours"}
    ]}
  ]
}
